Source: article PMC6445242, “Novel tetrazole and cyanamide derivatives as inhibitors of cyclooxygenase-2 enzyme: design, synthesis, anti-inflammatory evaluation, ulcerogenic liability and docking study” (Journal of Enzyme Inhibition and Medicinal Chemistry, 2017)
Marks after values point to notes of the source that are not given here.

How the values were obtained:
ovine COX-1 = biological target: T1, ovine COX-1 (Ovis aries, UniProt P05979); test: In vitro COX-1 inhibition assay (EIA kit, Cayman)
T1 sequence (P05979 25-600): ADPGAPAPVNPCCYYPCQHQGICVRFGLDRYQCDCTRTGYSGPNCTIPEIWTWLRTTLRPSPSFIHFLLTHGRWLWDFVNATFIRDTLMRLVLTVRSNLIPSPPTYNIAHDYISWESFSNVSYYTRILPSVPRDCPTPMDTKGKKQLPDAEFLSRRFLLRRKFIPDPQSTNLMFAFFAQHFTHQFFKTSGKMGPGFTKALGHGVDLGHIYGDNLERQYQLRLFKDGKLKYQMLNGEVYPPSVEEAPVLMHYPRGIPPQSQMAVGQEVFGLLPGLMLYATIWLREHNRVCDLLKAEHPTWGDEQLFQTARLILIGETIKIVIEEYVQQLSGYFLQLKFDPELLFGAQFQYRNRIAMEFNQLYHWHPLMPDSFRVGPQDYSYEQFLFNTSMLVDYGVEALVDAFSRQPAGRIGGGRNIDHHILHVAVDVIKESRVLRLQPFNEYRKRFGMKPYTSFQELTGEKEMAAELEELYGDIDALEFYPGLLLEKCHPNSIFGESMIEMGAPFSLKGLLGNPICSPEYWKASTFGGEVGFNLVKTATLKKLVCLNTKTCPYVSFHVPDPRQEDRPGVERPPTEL
Description: (§1) The peroxidase activity of cyclooxygenase enzyme isoforms was measured using the COX activity assay kit. The ability of the test compounds to inhibit both ovine COX-1 and COX-2 enzymes was explored in vitro using a colorimetric enzyme immunoassay (EIA) kit. The appearance of oxidised N,N,N′,N′-tetramethyl-p-phenylenediamine (TMPD) was monitored at 590 nm. The kit includes isozyme-specific inhibitors for distinguishing COX-2 activity from that of COX-1.

[1] = system: carrageenan-induced paw oedema; test: Carrageenan-induced rat paw oedema; assay type: in vivo; details: 50 mg/kg oral; for %Inhibition of paw oedema, 1h / Paw thickness change mean ± SEM, 1h: 1 h after carrageenan; for Paw thickness change mean ± SEM, 1h / Paw thickness change mean ± SEM, 3h / Paw thickness change mean ± SEM, 5h: n = 4; for %Inhibition of paw oedema, 3h / Paw thickness change mean ± SEM, 3h: 3 h after carrageenan; for %Inhibition of paw oedema, 5h / Paw thickness change mean ± SEM, 5h: 5 h after carrageenan
Description: Female wister rats (150-200 g) were used in this study. The animals were kept at controlled conditions (temperature 23 ± 2 °C, humidity 60 ± 10%) and a 12/12-h light/dark cycle with access to food and water. All procedures relating to animal care and treatments were performed according to protocols approved by the Research Ethical Committee of Faculty of Pharmacy Beni-Suef University (2014-Beni-Suef, Egypt). The anti-inflammatory activity of the synthesised compounds was determined in vivo by […]-induced paw oedema method in rats[49]. Rats were divided into 21 groups of four animals each, and then, they were fasted overnight with free access to water before the experiment. Before any drug administration, thickness of the left hind paw of each rat was measured in millimetres. Group 1 served as a control and administered the vehicle (2.5% Tween 80).

ovine COX-2 = biological target: T2, ovine COX-2 (Ovis aries, UniProt P79208); test: In vitro COX-2 inhibition assay (EIA kit, Cayman); details: for IC50: IC50 COX-2, ovine COX-2, mean of two determinations; for SI, COX-2 selectivity index (COX-1 IC50/COX-2 IC50): ovine enzymes
T2 sequence (P79208 17-603): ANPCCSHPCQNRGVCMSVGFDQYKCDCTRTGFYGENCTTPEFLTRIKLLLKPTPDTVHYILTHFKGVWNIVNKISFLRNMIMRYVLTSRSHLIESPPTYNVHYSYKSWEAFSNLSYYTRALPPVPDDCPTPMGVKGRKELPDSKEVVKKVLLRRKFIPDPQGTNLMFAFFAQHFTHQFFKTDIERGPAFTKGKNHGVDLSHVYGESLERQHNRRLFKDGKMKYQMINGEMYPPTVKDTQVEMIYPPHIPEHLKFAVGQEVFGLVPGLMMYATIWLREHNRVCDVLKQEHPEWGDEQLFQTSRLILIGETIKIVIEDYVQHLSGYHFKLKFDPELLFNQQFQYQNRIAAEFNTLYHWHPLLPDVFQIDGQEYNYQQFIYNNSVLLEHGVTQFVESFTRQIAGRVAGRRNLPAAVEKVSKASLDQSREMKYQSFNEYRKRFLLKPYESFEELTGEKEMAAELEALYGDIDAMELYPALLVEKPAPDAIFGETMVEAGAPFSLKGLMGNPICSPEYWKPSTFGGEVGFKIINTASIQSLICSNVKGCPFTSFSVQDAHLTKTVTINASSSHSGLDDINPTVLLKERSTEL
Description: as §1

rat's gastric tissue = test: Histopathological investigation of stomach; assay type: in vivo; details: haematoxylin and eosin, after ulcerogenic liability dosing
Description: Whole rats stomach were collected, selected stomach samples from each rat were fixed in 10% neutral buffered formalin for 48 h and routinely processed for paraffin embedding. 5 μm Thickness sections were obtained then stained with haematoxylin and eosin for histopathological evaluation.

[2] = system: gastric mucosa (ulcer number, ulcer index); test: Ulcerogenic liability; assay type: in vivo, rat; details: 50 mg/kg oral, three successive days, rats; for Ulcer index: sum of % incidence, average severity and average number of ulcers
Description: Female wister rats (150–200 g) were used in this study. The animals were kept at controlled conditions (temperature 23 ± 2 °C, humidity 60 ± 10%) and a 12/12-h light/dark cycle with access to food and water. All procedures relating to animal care and treatments were performed according to protocols approved by the Research Ethical Committee of Faculty of Pharmacy Beni-Suef University (2014-Beni-Suef, Egypt).
[…]. Forty-eight rats were used in this study, divided into 12 groups and fasted for 18 h before drug administration. The control group received the vehicle (2.5% Tween 80). Other groups received test compounds, celecoxib or indomethacin at a dose of 50 mg/kg, then animals were fed after 2 h. Rats were given the specified dose orally for three successive days. Rats were sacrificed after 2 h of the last dose, then the stomach of each rat was removed and opened along the greater curvature for determination of the ulcer number and ulcer index according to the reported method.

COc1ccc(/C=C/C(=O)c2ccc(NC#N)cc2)cc1OC [Compound 7a, (ZE)-N-{4-[3–(3,4-Dimethoxyphenyl)acryloyl]phenyl}cyanamide]
IC50 (ovine COX-1): 3.45 µM | %Inhibition of paw oedema, 1h [1]: 24% | Paw thickness change mean ± SEM, 1h [1]: 1.20 ± 0.11 mm | %Inhibition of paw oedema, 3h [1]: 22% | Paw thickness change mean ± SEM, 3h [1]: 1.30 ± 0.15 mm | %Inhibition of paw oedema, 5h [1]: 0% | Paw thickness change mean ± SEM, 5h [1]: 1.33 ± 0.08 mm | IC50 (ovine COX-2): 0.26 µM | SI, COX-2 selectivity index (COX-1 IC50/COX-2 IC50) (ovine COX-2): 13.26 | melting point: 112 to 114 °C

N#Cc1c(-c2cccnc2)cc(-c2ccc(-n3cnnn3)cc2)nc1N [Compound 4b, 6′-[4-(1H-Tetrazol-1-yl)phenyl]-2′-amino-[3,4′-bipyridine]-3′-carbonitrile]
IC50 (ovine COX-1): 6.11 µM | %Inhibition of paw oedema, 1h [1]: 19% | Paw thickness change mean ± SEM, 1h [1]: 1.28 ± 0.10 mm | %Inhibition of paw oedema, 3h [1]: 9% | Paw thickness change mean ± SEM, 3h [1]: 1.53 ± 0.08 mm | %Inhibition of paw oedema, 5h [1]: 4% | Paw thickness change mean ± SEM, 5h [1]: 1.28 ± 0.14 mm | IC50 (ovine COX-2): 0.27 µM | SI, COX-2 selectivity index (COX-1 IC50/COX-2 IC50) (ovine COX-2): 22.62 | melting point: 238 to 240 °C

C/C(=N\Nc1ccc(S(C)(=O)=O)cc1)c1ccc(-n2cnnn2)cc1 [Compound 6a, (ZE)-1-{4-[1-(2-(4-Methanesulphonylphenyl)hydrazono)ethyl]phe-nyl}-1H-tetrazole]
IC50 (ovine COX-1): 9.21 µM | %Inhibition of paw oedema, 1h [1]: 30% | Paw thickness change mean ± SEM, 1h [1]: 1.10 ± 0.23 mm | %Inhibition of paw oedema, 3h [1]: 42% | Paw thickness change mean ± SEM, 3h [1]: 0.98 ± 0.23 mm | %Inhibition of paw oedema, 5h [1]: 4% | Paw thickness change mean ± SEM, 5h [1]: 1.28 ± 0.08 mm | IC50 (ovine COX-2): 0.38 µM | SI, COX-2 selectivity index (COX-1 IC50/COX-2 IC50) (ovine COX-2): 24.23 | melting point: 258 to 260 °C

COc1ccc(/C=C/C(=O)c2ccc(-n3cnnn3)cc2)cc1OC [Compound 3a, (ZE)-1-[4-(1H-Tetrazol-1-yl)phenyl]-3-(3,4-dimethoxyphenyl)prop-2-en-1-one]
IC50 (ovine COX-1): 12.5 µM | %Inhibition of paw oedema, 1h [1]: 25% | %Inhibition of paw oedema, 3h [1]: 9% | Paw thickness change mean ± SEM, 3h [1]: 1.53 ± 0.09 mm | IC50 (ovine COX-2): 0.57 µM | SI, COX-2 selectivity index (COX-1 IC50/COX-2 IC50) (ovine COX-2): 22 | melting point: 214 to 216 °C

COc1cc(/C=C/C(=O)c2ccc(-n3cnnn3)cc2)cc(OC)c1OC [Compound 3b, (ZE)-1-[4-(1H-Tetrazol-1-yl)phenyl]-3-(3,4,5-trimethoxyphenyl)prop-2-en-1-one]
IC50 (ovine COX-1): 6.74 µM | %Inhibition of paw oedema, 1h [1]: 54% | Paw thickness change mean ± SEM, 1h [1]: 0.73 ± 0.08 mm | %Inhibition of paw oedema, 3h [1]: 13% | Paw thickness change mean ± SEM, 3h [1]: 1.45 ± 0.18 mm | %Inhibition of paw oedema, 5h [1]: 0% | Paw thickness change mean ± SEM, 5h [1]: 1.33 ± 0.08 mm | IC50 (ovine COX-2): 0.24 µM | SI, COX-2 selectivity index (COX-1 IC50/COX-2 IC50) (ovine COX-2): 28.08 | melting point: 215 to 217 °C

COc1ccc2c(c1)c(CC(=O)O)c(C)n2C(=O)c1ccc(Cl)cc1 [Indomethacin, reference compound]
Histopathological findings in stomach (rat's gastric tissue): Complete disruption of protective mucosal layer | Average number of ulcers [2]: 14.25*** | Ulcer index [2]: 22.50*** | Ulcer index ([2]; listed as indomethacin): 22.5

N#Cc1c(-c2ccccc2)cc(-c2ccc(-n3cnnn3)cc2)nc1N [Compound 4a, 6-[4-(1H-Tetrazol-1-yl)phenyl]-2-amino-4-phenylnicotinonitrile]
IC50 (ovine COX-1): 6.23 µM | %Inhibition of paw oedema, 1h [1]: 51% | Paw thickness change mean ± SEM, 1h [1]: 0.78 ± 0.08 mm | %Inhibition of paw oedema, 3h [1]: 10% | Paw thickness change mean ± SEM, 3h [1]: 1.50 ± 0.19 mm | %Inhibition of paw oedema, 5h [1]: 0% | Paw thickness change mean ± SEM, 5h [1]: 1.33 ± 0.05 mm | IC50 (ovine COX-2): 0.43 µM | SI, COX-2 selectivity index (COX-1 IC50/COX-2 IC50) (ovine COX-2): 14.48 | melting point: 238 to 240 °C

C/C(=N\Nc1ccc(S(N)(=O)=O)cc1)c1ccc(-n2cnnn2)cc1 [Compound 6b]
IC50 (ovine COX-1): 12.9 µM | Paw thickness change mean ± SEM, 1h [1]: 0.80 ± 0.26 mm | %Inhibition of paw oedema, 3h [1]: 37% | Paw thickness change mean ± SEM, 3h [1]: 1.05 ± 0.09 mm | %Inhibition of paw oedema, 5h [1]: 12% | Paw thickness change mean ± SEM, 5h [1]: 1.18 ± 0.13 mm | IC50 (ovine COX-2): 0.51 µM | SI, COX-2 selectivity index (COX-1 IC50/COX-2 IC50) (ovine COX-2): 25.27 | melting point: 255 to 257 °C

N#Cc1c(-c2cccnc2)cc(-c2ccc(-n3cnnn3)cc2)nc1O [Compound 5b, 6′-[4-(1H-Tetrazol-1-yl)phenyl]-2′-hydroxy-[3,4′-bipyridine]-3′-carbonitrile]
IC50 (ovine COX-1): 12.4 µM | %Inhibition of paw oedema, 1h [1]: 38% | Paw thickness change mean ± SEM, 1h [1]: 0.98 ± 0.18 mm | %Inhibition of paw oedema, 3h [1]: 33% | Paw thickness change mean ± SEM, 3h [1]: 1.13 ± 0.15 mm | %Inhibition of paw oedema, 5h [1]: 17% | Paw thickness change mean ± SEM, 5h [1]: 1.10 ± 0.15 mm | IC50 (ovine COX-2): 1.14 µM | SI, COX-2 selectivity index (COX-1 IC50/COX-2 IC50) (ovine COX-2): 10.88 | melting point: 287 to 289 °C

COc1cc(/C=C/C(=O)c2ccc(NC#N)cc2)cc(OC)c1OC [Compound 7b, (ZE)-N-{4-[3–(3,4,5-Trimethoxyphenyl)acryloyl]phenyl}cyanamide]
IC50 (ovine COX-1): 3.52 µM | %Inhibition of paw oedema, 1h [1]: 32% | Paw thickness change mean ± SEM, 1h [1]: 1.08 ± 0.11 mm | %Inhibition of paw oedema, 3h [1]: 43% | Paw thickness change mean ± SEM, 3h [1]: 0.95 ± 0.17 mm | %Inhibition of paw oedema, 5h [1]: 0% | Paw thickness change mean ± SEM, 5h [1]: 1.33 ± 0.08 mm | IC50 (ovine COX-2): 0.24 µM | SI, COX-2 selectivity index (COX-1 IC50/COX-2 IC50) (ovine COX-2): 14.66 | melting point: 109 to 111 °C

COc1ccc(-c2cc(-c3ccc(-n4cnnn4)cc3)[nH]c(=O)c2C#N)cc1 [Compound 5c, 6-[4-(1H-Tetrazol-1-yl)phenyl]-4-(4-methoxyphenyl)-2-oxo-1,2-dihydropyridine-3-carbonitrile]
IC50 (ovine COX-1): 11.2 µM | %Inhibition of paw oedema, 1h [1]: 57% | Paw thickness change mean ± SEM, 1h [1]: 0.68 ± 0.09 mm | %Inhibition of paw oedema, 3h [1]: 30% | Paw thickness change mean ± SEM, 3h [1]: 1.18 ± 0.11 mm | %Inhibition of paw oedema, 5h [1]: 14% | Paw thickness change mean ± SEM, 5h [1]: 1.15 ± 0.05 mm | IC50 (ovine COX-2): 0.71 µM | SI, COX-2 selectivity index (COX-1 IC50/COX-2 IC50) (ovine COX-2): 15.81 | melting point: > 300 °C
